In the experiment the target is T1, GHS-R1a receptor (ghrelin receptor) (Homo sapiens, UniProt Q92847).
T1 construct: gene GHSR; human GHS-R1a with C-terminal EGFP tag, stably expressed in Hek293a cells
The experiment can be described thus: calcium mobilisation in Hek-GHS-R1a-EGFP cells; no response in wild-type Hek or 5-HT2C cells; reduced by JMV2959. In kind it is cell-based. A general note: A change in cytosolic calcium serves as a functional read-out for many receptors and channels.

The results in this text go back to paper PMC5098229, “A Novel Non-Peptidic Agonist of the Ghrelin Receptor with Orexigenic Activity In vivo” (Scientific Reports, 2016).

Each structure is given as a SMILES string.

By EC50 is commonly meant the concentration needed to bring the measured effect to its halfway point.

T1 sequence (Q92847 whole entry): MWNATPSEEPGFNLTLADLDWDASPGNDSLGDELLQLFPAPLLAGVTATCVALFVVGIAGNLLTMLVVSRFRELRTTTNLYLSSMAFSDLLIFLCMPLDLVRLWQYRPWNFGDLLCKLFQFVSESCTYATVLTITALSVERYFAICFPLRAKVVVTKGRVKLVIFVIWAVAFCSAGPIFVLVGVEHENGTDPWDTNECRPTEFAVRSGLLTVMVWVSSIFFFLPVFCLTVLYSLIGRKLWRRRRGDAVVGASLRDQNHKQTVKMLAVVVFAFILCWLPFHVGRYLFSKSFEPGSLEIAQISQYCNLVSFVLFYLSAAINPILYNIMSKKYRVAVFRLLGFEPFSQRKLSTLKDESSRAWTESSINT

Take `COc1cc(C)n(C)c(=O)c1C(F)(F)F` [compound 8, 4-Methoxy-1,6-dimethyl-3-(trifluoromethyl)pyridin-2(1H)-one]: the concentration for a half-maximal effect (EC50) amounted to 3.1 µM.
